Reference: US20040102622A1, “Modulation of hepatocyte growth factor receptor expression” (Isis Pharmaceuticals Inc., priority 2002, published 2004)

The substances below were run on human hepatocyte growth factor receptor mRNA.
For “ISIS 155112: 2′-MOE gapmer, phosphorothioate backbone, sequence taggagtcttctcccttgca (antisense TAGGAGTCTTCTCCCTTGCA; all phosphorothioate, sugars by position and methylation of C not given here; 2'-MOE gapmer)”, the “inhibition of human hepatocyte growth factor receptor expression” value (“inhibition” for short) was “at least 35%”.
In the case of “ISIS 155113: 2′-MOE gapmer, phosphorothioate backbone, sequence ctaatgagttgatcatcata (antisense CTAATGAGTTGATCATCATA; all phosphorothioate, sugars by position and methylation of C not given here; 2'-MOE gapmer)”, the “inhibition” value is reported as “at least 35%”.
With “ISIS 155114: 2′-MOE gapmer, phosphorothioate backbone, sequence aattgttgctttcaaaggca (antisense AATTGTTGCTTTCAAAGGCA; all phosphorothioate, sugars by position and methylation of C not given here; 2'-MOE gapmer)” the “inhibition” value was “at least 35%”.
“ISIS 155115: 2′-MOE gapmer, phosphorothioate backbone, sequence agttccttcctgcttcatgc (antisense AGTTCCTTCCTGCTTCATGC; all phosphorothioate, sugars by position and methylation of C not given here; 2'-MOE gapmer)” was tested, and the “inhibition” value was “at least 35%”.
“ISIS 155116: 2′-MOE gapmer, phosphorothioate backbone, sequence aaatctttcatgatgattcc (antisense AAATCTTTCATGATGATTCC; all phosphorothioate, sugars by position and methylation of C not given here; 2'-MOE gapmer)” was tested, and the “inhibition” value was “at least 35%”.
For “ISIS 155117: 2′-MOE gapmer, phosphorothioate backbone, sequence gtagattgcaggcagacaga (antisense GTAGATTGCAGGCAGACAGA; all phosphorothioate, sugars by position and methylation of C not given here; 2'-MOE gapmer)”, the “inhibition” value was “at least 35%”.
“ISIS 155118: 2′-MOE gapmer, phosphorothioate backbone, sequence catccagcatacagtttctt (antisense CATCCAGCATACAGTTTCTT; all phosphorothioate, sugars by position and methylation of C not given here; 2'-MOE gapmer)” was tested, and the “inhibition” value was “at least 35%”.
For “ISIS 155119: 2′-MOE gapmer, phosphorothioate backbone, sequence aagtatattaaacacttcct (antisense AAGTATATTAAACACTTCCT; all phosphorothioate, sugars by position and methylation of C not given here; 2'-MOE gapmer)”, the “inhibition” value was “at least 35%”.
“ISIS 155120: 2′-MOE gapmer, phosphorothioate backbone, sequence gtgtcctattaaagcagtgc (antisense GTGTCCTATTAAAGCAGTGC; all phosphorothioate, sugars by position and methylation of C not given here; 2'-MOE gapmer)” was tested, and the “inhibition” value was “at least 35%”.
“ISIS 155121: 2′-MOE gapmer, phosphorothioate backbone, sequence tgaaaggactttggctccca (antisense TGAAAGGACTTTGGCTCCCA; all phosphorothioate, sugars by position and methylation of C not given here; 2'-MOE gapmer)” was tested, and the “inhibition” value was “at least 35%”.
In the case of “ISIS 155122: 2′-MOE gapmer, phosphorothioate backbone, sequence aagcctatccaaatgaggag (antisense AAGCCTATCCAAATGAGGAG; all phosphorothioate, sugars by position and methylation of C not given here; 2'-MOE gapmer)”, the “inhibition” value is reported as “at least 35%”.
